Measurements: patent publication US5948780A, “Method for treating and preventing heart failure and ventricular dilatation” (priority 1997, dated 1999)

Each molecule was assayed against T1, MMP-2 (Gelatinase A) (Homo sapiens, UniProt P08253) (assay: biochemical). Settings: read-out: IC50 MMP2.
T1 sequence (P08253 110-660): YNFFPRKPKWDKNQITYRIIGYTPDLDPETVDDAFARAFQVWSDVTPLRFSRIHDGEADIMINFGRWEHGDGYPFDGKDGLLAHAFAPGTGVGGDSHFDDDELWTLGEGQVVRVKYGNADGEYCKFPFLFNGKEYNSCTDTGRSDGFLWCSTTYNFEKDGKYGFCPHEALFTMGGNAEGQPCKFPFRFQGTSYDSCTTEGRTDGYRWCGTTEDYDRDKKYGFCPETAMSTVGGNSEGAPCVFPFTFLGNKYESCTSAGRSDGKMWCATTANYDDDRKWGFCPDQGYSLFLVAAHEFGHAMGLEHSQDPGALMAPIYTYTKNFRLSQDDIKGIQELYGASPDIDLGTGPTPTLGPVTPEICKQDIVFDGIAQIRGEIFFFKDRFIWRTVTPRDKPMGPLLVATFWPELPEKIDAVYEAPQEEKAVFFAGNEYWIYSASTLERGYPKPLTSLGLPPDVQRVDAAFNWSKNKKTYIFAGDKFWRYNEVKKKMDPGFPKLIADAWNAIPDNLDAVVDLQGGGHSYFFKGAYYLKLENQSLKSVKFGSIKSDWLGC
Protocol: (§1) The assays measure the amount by which a test compound reduces the hydrolysis of a thiopeptolide substrate caused by a matrix metalloproteinase enzyme.
(§2) Thiopeptolide substrates show virtually no decomposition or hydrolysis in the absence of a matrix metalloproteinase enzyme. A typical thiopeptolide substrate commonly utilized for assays is Ac-Pro-Leu-Gly-thioester-Leu-Leu-Gly-O Et. […] Assays are carried out with and without matrix metalloproteinase inhibitor compounds, and the amount of hydrolysis is compared for a determination of inhibitory activity of the test compounds.

Structure (SMILES) | IC50
O=C(Cc1ccccc1)N[C@@H](CC(=O)c1ccc2oc3ccccc3c2c1)C(=O)O [(S)-4-Dibenzofuran-2-yl-4-oxo-2-phenylacetylamino-butyric acid] | 84 nM

Each molecule was assayed against MMP-3 (stromelysin) (Homo sapiens, UniProt P08254) (assay: biochemical). Settings: read-out: IC50 MMP3.
Sequence of MMP-3 (stromelysin) (P08254 100-477): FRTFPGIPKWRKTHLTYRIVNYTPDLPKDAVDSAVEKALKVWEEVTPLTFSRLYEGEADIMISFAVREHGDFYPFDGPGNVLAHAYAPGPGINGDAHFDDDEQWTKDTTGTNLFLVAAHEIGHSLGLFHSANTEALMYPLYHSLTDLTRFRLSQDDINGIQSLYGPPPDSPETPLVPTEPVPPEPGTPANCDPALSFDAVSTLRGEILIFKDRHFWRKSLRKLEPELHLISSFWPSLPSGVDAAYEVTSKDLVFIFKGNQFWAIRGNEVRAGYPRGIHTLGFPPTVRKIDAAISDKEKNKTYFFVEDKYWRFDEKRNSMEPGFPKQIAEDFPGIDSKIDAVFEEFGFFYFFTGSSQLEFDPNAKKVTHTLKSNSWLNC
Assay type: biochemical
Protocol: as §1, §2

Structure (SMILES) | IC50
O=C(O)CCC(O)c1ccc(-c2ccc(Cl)cc2)cc1 (racemic) [(±)-4-(4'-Chloro-biphenyl-4-yl)-4-hydroxy-butyric acid] | 280 nM
O=C(O)CCC(=NO)c1ccc(-c2ccc(Br)cc2)cc1 [4-(4'-Bromo-biphenyl-4-yl)-4-hydroxyimino-butyric acid] | 110 nM
CN(C)N=C(CCC(=O)O)c1ccc(-c2ccc(Cl)cc2)cc1 [4-(4'-Chloro-biphenyl-4-yl)-4-(dimethylhydrazono)-butyric acid] | 930 nM
O=C(O)CCC(=NO)c1ccc(-c2ccc(Cl)cc2)cc1 [4-(4'-Chloro-biphenyl-4-yl)-4-hydroxyimino-butyric acid] | 120 nM
O=C(Cc1ccccc1)N[C@@H](CC(=O)c1ccc2oc3ccccc3c2c1)C(=O)O [(S)-4-Dibenzofuran-2-yl-4-oxo-2-phenylacetylamino-butyric acid] | 330 nM
CC(C)CC(CC(=O)NO)C(=O)N[C@@H](CC(C)C)C(=O)N[C@@H](Cc1ccccc1)C(N)=O (stereo partly shown) [Compound U24522, reference compound] | 20 nM
